Results published in patent US8193185B2, “Use of tryptanthrin compounds for immune potentiation” (Novartis Vaccines and Diagnostics, Inc., priority 2003, dated 2012).

These compounds were tested on human peripheral blood mononuclear cells (PBMC) (assay: HTS assay for small molecule immune potentiators: TNF-a production by human PBMC (sandwich ELISA)). Conditions: human PBMC 500,000 per mL, 18 h at 37° C., secreted TNF by sandwich ELISA.
Format: cell-based
Text: Candidate small molecule immune potentiators can be identified in vitro. Compounds are screened in vitro for their ability to stimulate human peripheral blood mononuclear cells to produce cytokines (e.g. TNF-a and IL-12 p40). Apoptosis inducing small molecules may be identified having this activity. These small molecule immunopotentiators have potential utility as adjuvants and immunotherapeutics.
In an assay procedure (High Throughput Screening (HTS)) for small molecule immune potentiators (SMIPs), human peripheral blood mononuclear cells (PBMC), 500,000 per mL in RPMI 1640 medium with 10% FCS, are distributed in 96 well plates (100,000 per well) already containing 5 μM of compound in DMSO. The PBMCs are incubated for 18 h at 37° C. in 5% CO2. Their ability to produce cytokines in response to the small molecule compounds is determined using a modified sandwich ELISA.
Briefly supernatants from the PBMC cultures are assayed for secreted TNF using a primary plate bound antibody for capture followed by a secondary biotinylated anti-TNF antibody forming a sandwich. The biotinylated second antibody is then detected using streptavidin-Europium and the amount of bound europium is determined by time resolved fluorescence. Compounds are screened for their TNF inducing activity that is measured in the assay as increased Europim counts over cells incubated in RPMI medium alone. “Hits” are selected based on their TNF-inducing activity relative to an optimal dose of lipopolysaccaride LPS (1 μg/ml), a strong TNF inducer. The robustness of the assay and low backgrounds have allowed for the routine selection of hits with ˜10% of LPS activity that is normally between 5-10× background (cells alone). Selected hits are then subjected to confirmation for their ability to induce cytokines from multiple donors at decreasing concentrations. Those compounds with consistent activity at or below 5 μM are considered confirmed for the purposes of this assay. The assay is readily modified for screening for compounds effective at higher or lower concentrations.

SMILES | minimal effective concentration
O=C1c2cc(OC(F)(F)F)ccc2-n2c1nc1cc(SCCO)ccc1c2=O [Compound 1023, 3-[(2-hydroxyethyl)thio]-8-[(trifluoromethyl)oxy]indol o[2,1-b]quinazoline-6,12-dione] | ≤ 1.5 µM
O=C1c2ccccc2-n2c1nc1c(Br)cc(Br)c(F)c1c2=O [Compound 1015, 2,4-dibromo-1-fluoroindolo[2,1-b]quinazoline-6,12-dione] | ≤ 1.5 µM
CC(=O)OCCCCCCc1ccc2c(c1)C(=O)c1nc3ncccc3c(=O)n1-2 [Compound 1052, 6-(5,11-dioxo-5,11-dihydropyrido[2′,3′:4,5]py-rimido[1,2-a]indol-9-yl)hexyl acetate] | ≥ 20 µM
O=C1c2cc(Cl)ccc2-n2c1nc1ccc(I)cc1c2=O [Compound 1016, 8-chloro-2-iodoindolo[2,1-b]quinazoline-6,12-dione] | ≤ 1.5 µM
O=C1c2cc(C(F)(F)F)ccc2-n2c1nc1ccccc1c2=O [Compound 1046, 8-(trifluoromethyl)indolo[2,1-b]quinazoline-6,12-dione] | ≥ 20 µM
CN(CCOC(=O)CCC(=O)O)c1ccc2c(=O)n3c(nc2c1)C(=O)c1cc(Cl)ccc1-3 [Compound 1048, 4-({2-[(8-chloro-6,12-dioxo-6,12-dihydroindolo[2,1-b]quinazolin-3-yl)(methyl)amino]ethyl}oxy)-4-oxobutanoic acid] | ≥ 20 µM
CCNC(=O)c1ccc2c(c1)C(=O)c1nc3c(OC)cccc3c(=O)n1-2 [Compound 1020, N-ethyl-4-(methyloxy)-6,12-dioxo-6,12-dihydroindolo[2,1-b]quinazoline-8-carboxamide] | ≤ 1.5 µM
O=C1c2c(cccc2C(F)(F)F)-n2c1nc1ncccc1c2=O [Compound 1031, 10-(trifluoromethyl)pyrido[2′, 3′:4,5]pyrimido[1,2-a]indole-5,11-dione] | ≤ 1.5 µM
CN(CCO)c1ccc2c(=O)n3c(nc2c1)C(=O)c1cc(OC(F)(F)F)ccc1-3 [Compound 1050, 3-[(2-hydroxyethyl)(methyl)a-mino]-8-[(trifluoromethyl)oxy]indol o[2,1-b]quinazoline-6,12-dione] | ≥ 20 µM
O=C1c2cc(CCCCCCOP(=O)(O)O)ccc2-n2c1nc1ncccc1c2=O [Compound 1035, 6-(5,11-dioxo-5,11-dihydropyrido[2′,3′:4,5]py-rimido[1,2-a]indol-9-yl)hexyl dihydrogen phosphate] | ≤ 1.5 µM
O=C1c2cc(Cl)ccc2-n2c1nc1cc(N3CCOCC3)ccc1c2=O [Compound 1045, 8-chloro-3-morpholin-4-ylindolo[2,1-b]quinazoline-6,12-dione] | ≥ 20 µM
O=C1c2cc(Cl)ccc2-n2c1nc1ncccc1c2=O [Compound 1027, 9-chloropyrido[2′,3′:4,5]pyri-mido[1,2-a]indole-5,11-dione] | ≤ 1.5 µM
O=C1c2cc(F)ccc2-n2c1nc1c(F)cccc1c2=O [Compound 1009, 4,8-difluoroindolo[2,1-b]quinazoline-6,12-dione] | ≥ 5 µM
CCCCCCCCNS(=O)(=O)c1ccc2c(c1)C(=O)c1nc3ncccc3c(=O)n1-2 [Compound 1030, N-octyl-5,11-dioxo-5,11-dihydropyrido[2′,3′:4,5]py-rimido[1,2-a]indole-9-sulfonamide] | ≤ 1.5 µM
O=C1c2cc(OC(F)(F)F)ccc2-n2c1nc1cc(F)ccc1c2=O [Compound 1022, 3-fluoro-8-[(trifluoromethyl)oxy]indol o[2,1-b]quinazoline-6,12-dione] | ≤ 1.5 µM
O=C1c2cc(F)ccc2-n2c1nc1ccc(F)cc1c2=O [Compound 1003, 2,8-difluoroindolo[2,1-b]quinazoline-6,12-dione] | ≥ 5 µM
O=C1c2ccccc2-n2c1nc1ccccc1c2=O [Compound 1037, indolo[2,1-b]quinazoline-6,12-dione] | ≥ 20 µM
O=C1c2cc(F)cc(F)c2-n2c1nc1ccccc1c2=O [Compound 1008, 8,10-difluoroindolo[2,1-b]quinazoline-6,12-dione] | ≤ 1.5 µM
O=C1c2ccccc2-n2c1nc1ncccc1c2=O [Compound 1024, pyrido[2′,3′:4,5]pyrimido[1,2-a]indole-5,11-dione] | ≤ 1.5 µM
CN(CC(=O)O)c1ccc2c(=O)n3c(nc2c1)C(=O)c1cc(Cl)ccc1-3 [Compound 1047, [(8-chloro-6,12-dioxo-6,12-dihydroindolo[2,1-b]quinazolin-3-yl)(methyl)amino]acetic acid] | ≥ 20 µM

SMILES | minimal effective concentration
O=C1c2cc(I)ccc2-n2c1nc1c(O)cccc1c2=O [Compound 1040, 4-hydroxy-8-iodoindolo[2,1-b]quinazoline-6,12-dione] | ≥ 20 µM
O=C1c2cc(OC(F)(F)F)ccc2-n2c1nc1ccccc1c2=O [Compound 1021, 8-[(trifluoromethyl)oxy]indol o[2,1-b]quinazoline-6,12-dione] | ≥ 5 µM
O=C1c2cc(I)ccc2-n2c1nc1ccc(I)cc1c2=O [Compound 1042, 2,8-diiodoindolo[2,1-b]quinazoline-6,12-dione] | ≥ 20 µM
O=C1c2cc(C(F)(F)F)ccc2-n2c1nc1ncccc1c2=O [Compound 1034, 9-(trifluoromethyl)pyrido[2′, 3′:4,5]pyrimido[1,2-a]indole-5,11-dione] | ≥ 5 µM
O=C1c2cc(Cl)ccc2-n2c1nc1ccccc1c2=O [Compound 1038, 8-chloroindolo[2,1-b]quinazoline-6,12-dione] | ≥ 20 µM
Cc1cccc2nc3n(c(=O)c12)-c1ccc(F)cc1C3=O [Compound 1007, 8-fluoro-1-methylindolo[2,1-b]quinazoline-6,12-dione] | ≤ 1.5 µM
O=C1c2cc([N+](=O)[O-])ccc2-n2c1nc1ccccc1c2=O [Compound 1001, 8-nitroindolo[2,1-b]quinazoline-6,12-dione] | ≤ 1.5 µM
O=C1c2cc(Cl)ccc2-n2c1nc1cc(SCCO)ccc1c2=O [Compound 1051, 8-chloro-3-[(2-hydroxyethyl)thio]indolo[2,1-b]quinazoline-6,12-dione] | ≥ 20 µM
O=C1c2cc(F)ccc2-n2c1nc1ccc(Cl)cc1c2=O [Compound 1002, 2-chloro-8-fluoroindolo[2,1-b]quinazoline-6,12-dione] | ≥ 5 µM
O=C1c2cc(I)ccc2-n2c1nc1c(Br)cc(Br)c(F)c1c2=O [Compound 1013, 2,4-dibromo-1-fluoro-8-iodoindolo[2,1-b]quinazoline-6,12-dione] | ≤ 1.5 µM
O=C1c2cccc(F)c2-n2c1nc1ccccc1c2=O [Compound 1005, 10-fluoroindolo[2,1-b]quinazoline-6,12-dione] | ≤ 1.5 µM
O=C1c2cc(I)ccc2-n2c1nc1c(Cl)cc(Cl)cc1c2=O [Compound 1041, 2,4-dichloro-8-iodoindolo[2,1-b]quinazoline-6,12-dione] | ≥ 20 µM
CC(C)(C)OC(=O)N1CCN(c2cc3nc4n(c(=O)c3cc2F)-c2ccc(I)cc2C4=O)CC1 [Compound 1012, 1,1-dimethylethyl 4-(2-fluoro-8-iodo-6,12-dioxo-6,12-dihydroindolo[2,1-b]quinazolin-3-yl)piperazine-1-carboxylate] | ≥ 5 µM
O=C1c2cc(OC(F)(F)F)ccc2-n2c1nc1ncccc1c2=O [Compound 1036, 9-[(trifluoromethyl)oxy]pyri-do[2′,3′:4,5]pyrimido[1,2-a]indole-5,11-dione] | ≤ 1.5 µM
Cc1cc(Cl)cc2c1-n1c(nc3ccccc3c1=O)C2=O [Compound 1011, 8-chloro-10-methylindolo[2,1-b]quinazoline-6,12-dione] | ≥ 5 µM
CCOP(=O)(CCCC/C=C/c1ccc2c(c1)C(=O)c1nc3ncccc3c(=O)n1-2)OCC [Compound 1032, diethyl (5E)-6-(5,11-dioxo-5,11-dihydropyrido[2′,3′:4,5]py-rimido[1,2-a]indol-9-yl)hex-5-enylphosphonate] | ≥ 5 µM
O=C1c2cc(F)ccc2-n2c1nc1cccc(F)c1c2=O [Compound 1006, 1,8-difluoroindolo[2,1-b]quinazoline-6,12-dione] | ≤ 1.5 µM
O=C1c2cc(I)ccc2-n2c1nc1c(I)cc(I)cc1c2=O [Compound 1043, 2,4,8-triiodoindolo[2,1-b]quinazoline-6,12-dione] | ≥ 20 µM
O=C1c2cc(F)ccc2-n2c1nc1c(O)cccc1c2=O [Compound 1019, 8-fluoro-4-hydroxyindolo[2,1-b]quinazoline-6,12-dione] | ≤ 1.5 µM
CC(=O)OCCCC/C=C/c1ccc2c(c1)C(=O)c1nc3ncccc3c(=O)n1-2 [Compound 1033, (5E)-6-(5,11-dioxo-5,11-dihydropyrido[2′,3′:4,5]py-rimido[1,2-a]indol-9-yl)hex-5-enyl acetate] | ≤ 1.5 µM
